Our source for the IC50 and response vs control in vivo values is patent publication US7074798B2, “Xanthine derivative and DPPIV inhibitor” (Eisai Co., Ltd, priority 2002, dated 2006).

Structures can show the parent of a compound that is named as a salt.

In assay [1] the target is T1, DPP-IV obtained from swine kidney (Sus scrofa, UniProt P22411).
T1 construct: DPP-IV obtained from swine kidney; from tissue; host or cells: swine kidney
The assay can be described thus: Determination of the inhibition action of DPPIV. It counts as biochemical. Particulars: Gly-Pro-p-nitroanilide 0.33 mM, absorbance 405 nm. The procedure: DPP-IV obtained from swine kidney was dissolved in reaction buffer (50 mM Tris-HCl pH 7.4, 0.1% BSA) at a concentration of 10 mU/mL, and 110 μl of the solution was added. Then, medicament (15 μl) was added thereto, and the mixture was incubated at room temperature for 20 minutes. Gly-Pro-p-nitroanilide (25 μl, final concentration: 0.33 mM) dissolved to 2 mM was added to the mixture to start enzymatic reaction. The reaction time was 20 minutes, and 1N phosphoric acid solution (25 μl) was added to the mixture to quench the reaction.

The subject of the next assay is male C57BL/6N mouse. Kind of assay: Effect on glucose tolerance of normal mouse (oral glucose loading). It counts as in vivo. The following applies: 2 h, 30 min before glucose 2 g/kg, AUC0-120, 0.5% MC = 100%, NVP DPP728 10 mg/kg = 0%, lower = better, read-out: Improvement degree of glucose tolerance; for response vs control in vivo at 3 mg/kg: 3 mg/kg oral. The procedure:
Effect on Glucose Tolerance of Normal Mouse
male C57BL/6N mouse (purchased from CHARLES RIVER JAPAN, INC.)
A suspension of the test compound and NVP DPP728 or 0.5% MC solution (solvent control group) were orally administered at a dose of 10 mL/kg, and after 30 minutes, glucose solution was orally administered at a dose of 10 mL/kg. Glucose was orally administered at a dose of 2 g/kg.
Immediately before the administration of the test substance and NVP DPP728, immediately before the administration of the glucose solution and at 30 minutes, 60 minutes, and 120 minutes after the administration, a tail vein of the mouse was injured to slightly bleed by a razor under no anesthesia. 10 μl of blood was collected and was immediately mixed with 0.6M perchloric acid (140 μl). Glucose in the supernatant obtained by centrifugation (1500 g, 10 minutes, 4° C., refrigerated centrifuge GS-6KR, Beckman Instruments, Inc.) was measured using Glucose CII-Test Wako (Wako Pure Chemical Industries, Ltd.).
Area under the curve of blood glucose level-time (AUC0-120; Area Under the Curve) from the time of administration of glucose to 120 minutes after administration was calculated for respective administration groups, i.e., 0.5% MC solution, NVP DPP728, and the test compounds. Taking the AUC0-120 of the 0.5% MC solution administration group as 100% and the AUC0-120 of NVP DPP728 (10 mg/kg) administration group as 0%, the improvement degree of the glucose tolerance of a test compound was calculated using the following formula: Improvement degree of the glucose tolerance (%)=(AUC0-120 of the test compound−AUC0-120 of the NVP DPP728 (10 mg/kg) administration group)/(AUC0-120 of the 0.5% MC solution administration group−AUC0-120 of the NVP DPP728 (10 mg/kg) administration group)×100. • The lower the % value, the greater the improvement degree of the glucose tolerance will be.

T1 sequence (P22411 whole entry): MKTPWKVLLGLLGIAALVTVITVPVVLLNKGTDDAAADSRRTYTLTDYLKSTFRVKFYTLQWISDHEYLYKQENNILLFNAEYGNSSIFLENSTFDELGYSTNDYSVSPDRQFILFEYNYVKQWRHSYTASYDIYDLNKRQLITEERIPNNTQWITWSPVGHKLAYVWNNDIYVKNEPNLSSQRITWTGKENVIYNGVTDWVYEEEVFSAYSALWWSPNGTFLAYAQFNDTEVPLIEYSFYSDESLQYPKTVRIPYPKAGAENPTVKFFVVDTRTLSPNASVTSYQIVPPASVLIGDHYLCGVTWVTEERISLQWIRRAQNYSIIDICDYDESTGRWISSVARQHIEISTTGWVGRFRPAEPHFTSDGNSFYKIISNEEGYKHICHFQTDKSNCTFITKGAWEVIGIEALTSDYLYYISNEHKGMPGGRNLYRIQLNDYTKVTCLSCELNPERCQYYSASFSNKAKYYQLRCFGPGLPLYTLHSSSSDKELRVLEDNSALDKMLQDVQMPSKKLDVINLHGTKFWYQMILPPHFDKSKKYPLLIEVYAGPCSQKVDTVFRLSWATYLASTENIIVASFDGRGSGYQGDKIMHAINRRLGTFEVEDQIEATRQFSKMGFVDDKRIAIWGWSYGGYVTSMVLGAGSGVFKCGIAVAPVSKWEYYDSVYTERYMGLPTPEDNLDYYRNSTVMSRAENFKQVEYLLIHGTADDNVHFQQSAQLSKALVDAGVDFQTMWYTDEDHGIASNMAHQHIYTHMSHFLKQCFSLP

Consider `Cn1c(=O)n(CCc2ccccc2)c(=O)c2c1nc(N1CCCNCC1)n2Cc1ccccc1` [Control compound 1, reference compound], for which the IC50 – broadly, the concentration that gives 50% inhibition – in assay [1] is 0.0241 µM. The response vs control in vivo at 3 mg/kg with male C57BL/6N mouse was 49.2%.
Consider `CC#CCn1c(N2CCNCC2)nc2c1c(=O)n(C)c(=O)n2C1CCNC1=O` (stereo not shown) [Example 284, 7-(2-Butynyl)-1-methyl-3-(2-oxopyrrolidin-3-yl)-8-(piperazin-1-yl)-3,7-dihydropurine-2,6-dione hydrochloride], for which the response vs control in vivo at 3 mg/kg in the assay on male C57BL/6N mouse worked out at 11.3%.
Take `CC#CCn1c(N2CCNCC2)nc2c1c(=O)[nH]c(=O)n2CCOCC` [Example 321, 7-(2-Butynyl)-3-(2-ethoxyethyl)-8-(piperazin-1-yl)-3,7-dihydropurine-2,6-dione trifluoroacetate]: the response vs control in vivo at 3 mg/kg in the assay on male C57BL/6N mouse worked out at 16.9%.
Still for that read-out and setting: next, `CC#CCn1c(N2CCNCC2)nc2c1c(=O)n(CC(=O)c1ccccc1)c(=O)n2CCOCC` [Example 323, 7-(2-Butynyl)-3-(2-ethoxyethyl)-1-(2-oxo-2-phenylethyl-8-(piperazin-1-yl)-3,7-dihydropurine-2,6-dione trifluoroacetate]: 0.5%.
Regarding `CC#CCn1c(N2CCNCC2)nc2c1c(=O)n(CCc1ccccc1)c(=O)n2CC(=O)OCC` [Example 326, [7-(2-Butynyl)-2,6-dioxo-1-(2-phenethyl)-8-(piperazin-1-yl)-1,2,6,7-tetrahydropurin-3-yl]acetic acid ethyl ester hydrochloride], in the assay with male C57BL/6N mouse (1 mg/kg oral), the response vs control in vivo at 1 mg/kg is -19.2%. In addition, in the assay with male C57BL/6N mouse, the response vs control in vivo at 3 mg/kg was -30.6%.
